pIC50: −log10 of the molar value.
Experiments:
[1] = Pharmacokinetics after bolus IV injection; assay type: in vivo, Balb/c female mice; conditions: bolus IV 20 mg/kg, mice
Source text: Balb/c female mice (7-8 weeks old) were housed in microisolator cages, fed with commercial mouse food (Food Harlam 2018, Madison, USA) and allowed to acclimatise for seven days before any procedure.

[2] = test system: 83 human genes involved in telomere replication and maintenance in Mia-PaCa2 cells; assay: qPCR array, telomere replication and maintenance genes; assay type: cell-based
Description: Following compound exposure, cells were washed twice in PBS, harvested by trypsinisation, collected by centrifugation (300 g, 5 min, 4° C.) and re-suspended in RLT buffer (Qiagen). Samples were homogenised using QIAshredder spin columns and stored at −80° C. prior to RNA extraction. Three biological replicates were performed on separate days.
The expression of (i) 83 key human genes involved in telomere replication and maintenance, and (ii) 83 human genes involved in DNA damage signaling responses, was assessed using PCR arrays (SABiosciences). Total RNA was extracted from approximately 1×10^7 Mia-PaCa2 cells treated for 24 h with compound 3d, using the RNeasy kit (Qiagen) with on-column DNaseI treatment to remove residual genomic DNA. The quality of the harvested RNA was confirmed by nanodrop spectroscopy and by analysis with a Human RT^2 RNA QC PCR Array. First-strand cDNA synthesis was performed with the RT^2 first strand kit and qPCR was carried out using the RT^2 qPCR master mix (Qiagen) using 0.5 μg total RNA per array plate in a Stratagene MX-3000P instrument (Agilent, USA). Relative gene expression was determined by the ΔΔCT method using the web-based RT^2 Profiler™ PCR Array Data Analysis software (SABiosciences). Data were normalized to the geometric mean of five housekeeping genes (RPLP10, β-actin, B2M, GAPDH and HPRT1).
Dose-response curves were used to guide the choice of compound concentration and time-points for the array experiments (FIG. 2a). […] To explore this response continuum the transcriptional signature of cells exposed for 24 h to 20 nM, 40 nM, 80 nM concentrations of 3d, or solvent alone as control, was analysed as described in Materials and Methods.
However, changes in transcript abundance were modest, with only seven of these genes (MYC, NHP2, PPARG, PRKCB, PTEGES3, RASSF1 and SLX4) showing greater than two-fold abundance changes (FIGS. 2d and 2e).

telomerase = assay: TRAP-LIG cellular telomerase activity assay; assay type: cell-based, human; conditions: at the doses relevant to the IC50 values
Description: FIG. 1. Gel showing telomerase activity in MIA-Pa-Ca-2 cells treated with compound 3h after seven days of treatment. Lane 1; untreated cells, lanes 2-4; cells treated increasing concentrations of 3h. Telomerase activity was assessed using the TRAP-LIG assay as described in Materials and Methods. Compound concentrations are indicated. Neg; untreated cells, Pos; positive control. Neg: negative control with telomerase but no ligand.
Telomerase activity was determined using the TRAP-LIG assay, a modified telomere repeat amplification protocol that ensures that there is no carry-over of ligand into the second PCR step of the assay. Briefly, 1 μg of protein from untreated and treated cells were incubated with TS forward primer (0.1 μg of 5′-AAT CCG TCG AGC AGA GTT-3′) at 30° C. for 10 min to allow the initial elongation to take place. Elongated products were purified using the QIAquick nucleotide purification kit (Qiagen) according to the manufacturer's instructions. Eluted samples were freeze-dried and re-dissolved in PCR grade water. Re-dissolved PCR products were subjected to amplification in master mix containing ACX reverse primer (1 μM, 5′-GCG CGG [CTTACC]3 CTA ACC-3′), TS forward primer (0.1 μg), TRAP buffer, BSA (5 μg), 0.5 mM dNTPs, and 2U RedHot TAQ polymerase (ABgene, U.K.) for 35 cycles of 94° C. for 30 s, 61° C. for 1 min, and at 72° C. for 1 min. […]

[3] = test system: MiaPaCa2 (pancreatic) cells; assay: SRB growth inhibition assay, MiaPaCa2; assay type: cell-based, human
Method in brief: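 Growth inhibition of MiaPaCa2 cells was measured by SRB staining after 96 h exposure to 2-fold serial dilutions of compound dissolved in DMSO. IC50 was derived from mean absorbance at 540 nm expressed as a percentage of untreated control wells.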

A549 (lung) cells = assay: SRB growth inhibition assay, 96 hr exposure, A549; assay type: cell-based, human; conditions: Homo sapiens, A549, 96 h exposure
Method in brief: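 SRB growth inhibition was measured after 96 h exposure to 2-fold serial dilutions of compound, with cells maintained at 37 °C in 5% CO2 and medium containing 10% FBS. Absorbance at 540 nm was expressed as a percentage of untreated control wells. IC50 was derived from these values.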

CN1CCN(CCCNc2cc3c4c(c(NCCCN5CCN(C)CC5)cc5c4c2C(=O)N(CCCN2CCOCC2)C5=O)C(=O)N(CCCN2CCOCC2)C3=O)CC1 [Compound 3d, 4,9-bis((3-(4-methylpiperazin-1-yl)propyl)amino)-2,7-bis(3-morpholinopropyl)benzo[lmn][3,8]phenanthroline-1,3,6,8(2H,7H)-tetraone]
drug level at 24 hours [1]: no detectable drug | Cmax ([1]; female, Balb/c, mouse, in vivo): 1600 nM | half-life ([1]; female, Balb/c, mouse, in vivo): 4 h | number of telomere maintenance genes with greater than two-fold abundance changes ([2]; 20, 40 or 80 nM, 24 h): seven | expression of the gene encoding POT1 ([2]; borderline of statistical significance): down-regulation | number of telomere maintenance genes up or down-regulated to a statistically significant level (P<0.05) ([2]; of 83 genes, 20, 40 or 80 nM, 24 h): 30 genes | telomerase activity inhibition (telomerase): not inhibitors of telomerase activity | selectivity for Mia-PaCa2 compared to the normal fibroblast line WI-38 [3]: ~20 fold | pIC50 ([3]; Homo sapiens, MIA PaCa-2, SRB assay, 96 h exposure, read-out: IC50 Mia-PaCa2): 7.70 to 8.00 | growth response of MiaPaCa2 cells ([3]; exposure to 80 nM): no growth recovery | growth response of MiaPaCa2 cells ([3]; exposure to 160 nM): no viable cells could be recovered by 72 h | growth response of MiaPaCa2 cells ([3]; exposure to between 5 nM and 40 nM): titratable growth inhibition with subsequent full recovery of confluent growth at 144 h | pIC50 (A549 (lung) cells): 7.70 to 8.00

Reference: patent US9493460B2, “Diimide compounds” (UCL BUSINESS PLC, priority 2013, dated 2016)
